Results taken from patent publication US20030175270A1, “Methods of regulating cytokine receptor signaling” (priority 2002, published 2003).

Tests used:
STAT3 = STAT3 Tyr 705 phosphorylation in IL-3 stimulated BMMCs treated with Src inhibitor; type: cell-based, mouse; settings: IL-3 stimulated cd45+/+ or cd45-/- BMMCs
Experimental: (§1) Murine BMMCs, splenic B cells, thymocytes, peritoneal macrophages and Jurkat T-cell lines were stimulated with various cytokines. For immunoprecipitations, lysates were incubated with antibodies conjugated with agarose or Sepharose beads for 2 h at 4° C. Total cell lysates or immunoprecipitates were separated using SDS-polyacrylamide gel electrophoresis, transferred onto membranes and immunoblotted. COS cells were transfected using diethylaminoethyl-dextron transfection technique with wild-type or PTPase-dead CD45 (D1:C828s) as described [McKenney et al., J. Biol. Chem. 270:24949-24954, 1995].
(§2) Experiments were designed in order to assess whether Src kinases, known substrates of CD45, were deregulated during hyperactivation of the JAK-STAT pathway in cd45^−/− BMMCs. […] In addition, in IL-3 stimulated cd45^+/+ or cd45 ^−/− BMMCs, treatment with PP2 had no effect on the increased phosphorylation of the specific residues Tyr 1007 and TYR1008 in JAK2, Tyr 705 in STAT3, and Tyr 1022 and Tyr 1023 in JAK1 (see FIG. 2).

JAK1 = JAK1 Tyr 1022/Tyr 1023 phosphorylation in IL-3 stimulated BMMCs treated with Src inhibitor; type: cell-based, mouse; settings: IL-3 stimulated cd45+/+ or cd45-/- BMMCs
Experimental: as §1, §2

JAK2 = JAK2 activation/phosphorylation in IL-3 stimulated BMMCs treated with Src inhibitor; type: cell-based, mouse
Experimental: as §1
For tyrosine phosphatase assays, immunoprecipitated Lyn, JAKs or STATs from lysates of 10^7 BMMCs (for Lyn, JAK1, JAK2, STAT3 and STAT5) or macrophages (for Tyk2) were washed in lysis buffer and phosphatase reaction buffer [Felberg et al., J. Biol. Chem. 273:17839-17845, 1998]. The amounts of Lyn and JAK2 in the immunoprecipitates used in FIG. 3A were 72 ng and 48 ng, respectively, as determined by silver staining. […] Tyrosine phosphorylation was monitored by immunoblotting with phosphotyrosine-specific antibodies. The extent of tyrosine phosphorylation and amount of substrates were determined by quantifying the intensities of the immunoblots with NIH Image 1.61 software. […]

rCD45 = target: T1, rCD45 (Homo sapiens, UniProt P08575); assay: inhibition of rCD45-mediated JAK2 dephosphorylation; type: biochemical; settings: 0.1 mM Na3 VO4, 10 U rCD45
T1 construct: The rCD45 employed contained the intracellular dual PTPase domains with a relative molecular mas of 97,000 (Mr 97K); purchased Calbiochem
T1 sequence (P08575 599-1306 limits assumed): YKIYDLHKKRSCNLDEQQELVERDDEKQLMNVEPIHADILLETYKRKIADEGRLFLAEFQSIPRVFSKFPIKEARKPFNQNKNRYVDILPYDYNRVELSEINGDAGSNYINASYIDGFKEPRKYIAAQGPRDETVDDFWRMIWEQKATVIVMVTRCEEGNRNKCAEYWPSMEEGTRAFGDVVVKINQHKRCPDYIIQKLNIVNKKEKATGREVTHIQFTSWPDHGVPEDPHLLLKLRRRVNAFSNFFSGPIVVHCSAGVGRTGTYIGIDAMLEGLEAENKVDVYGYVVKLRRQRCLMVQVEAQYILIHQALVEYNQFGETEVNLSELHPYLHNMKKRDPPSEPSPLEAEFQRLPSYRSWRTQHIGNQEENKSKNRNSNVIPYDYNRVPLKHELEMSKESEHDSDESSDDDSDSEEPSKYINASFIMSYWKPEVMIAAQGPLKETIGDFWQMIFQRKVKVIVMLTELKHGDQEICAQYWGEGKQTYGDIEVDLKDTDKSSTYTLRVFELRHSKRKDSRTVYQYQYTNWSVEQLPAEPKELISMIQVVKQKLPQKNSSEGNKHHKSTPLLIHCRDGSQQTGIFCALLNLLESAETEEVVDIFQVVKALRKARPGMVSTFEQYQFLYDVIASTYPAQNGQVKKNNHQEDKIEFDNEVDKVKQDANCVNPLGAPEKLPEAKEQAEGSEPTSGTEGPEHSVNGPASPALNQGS
Experimental: For tyrosine phosphatase assays, immunoprecipitated Lyn, JAKs or STATs from lysates of 10^7 BMMCs (for Lyn, JAK1, JAK2, STAT3 and STAT5) or macrophages (for Tyk2) were washed in lysis buffer and phosphatase reaction buffer [Felberg et al., J. Biol. Chem. 273:17839-17845, 1998]. The amounts of Lyn and JAK2 in the immunoprecipitates used in FIG. 3A were 72 ng and 48 ng, respectively, as determined by silver staining. Recombinant CD45 was added to substrates in the presence or absence of 0.1 mM Na3 VO4 followed by incubation at 30° C. for 20 min. Tyrosine phosphorylation was monitored by immunoblotting with phosphotyrosine-specific antibodies. The extent of tyrosine phosphorylation and amount of substrates were determined by quantifying the intensities of the immunoblots with NIH Image 1.61 software. Kinase activity in anti-Lyn or anti-JAK immunoprecipitates was assessed by an in vitro kinase assay with Raytide (Oncogen Science) as a substrate or using authophosphorylation [Lui et al., Genes Dev. 13:786-791, 1999]. In vitro binding assays were performed as described [Felberg et al., J. Biol. Chem. 273:17839-17845, 1998], using 1 μg of soluble GST, GST-CD45-D2, or GST-PTPase-dead CD45 (D1:C828S). EMSAs were as described [Charurvedi et al., Mol. Cell. Biol. 17:3295-3304, 1997]. The sequences of the EMSA probes were: STAT3, 5′-[…]-3′ (SEQ ID NO: 1); STAT3 mutant, 5′-[…]-3′ (SEQ ID NO: 2). […]

Coxsackievirus B3 (CVB3) = assay: CVB3 replication in Jurkat cells, plaque-forming assay; type: cell-based, human; settings: IFN-α 1,000 units/ml pretreatment 4 h; cd45-deficient vs parental Jurkat cells
Experimental: For Coxsackievirus infections in vitro, Jurkat cells were pretreated with IFN-α (1,000 units ml−^1) for 4 h and inoculated in triplicate with 3×10^5 CVB3 for 1 h at 37° C. Cells were then washed to remove excess IFN-α and excess CBV3 virus, and resuspended in RPMI medium containing 10% FBS. After 24 h, culture supernatants were analyzed for the presence of infectious CVB3 by using plaque-forming assays in HeLa cell monolayers. For CVB3 infections in vivo , the cd45mutation was backcrossed onto an A/J (H2^k/k ) background for five generations. A/J (H2^k/k) mice are highly susceptible to acute and chronic CVB3 infections. Four-week-old mice were inoculated intraperitoneally with 10^5 plaque-forming units of CVB3. For lethality scores, cd45−^/− (n=25) and cd45^± (n=22) littermate mice were monitored daily after infection. […] At defined time points, mice were sacrificed and organs were processed for histology. Sections from eight mice per group were stained with haematoxylin/eosin and Masson blue. In all experiments, the CVB3 strain Gauntt-Chow was used.
IFN-α and IFN-α R-regulated signaling are critical for replication of the picomavirus Coxsackievirus B3 (CVB3) in vitro and CVB3 infections in vivo [Kandolf et al., J. Mol. Cell. Cardiol. 17:167-181, 1985]. […] CVB3 titres were measured after infection of parental or cd45-deficient Jurkat cell lines. […]

Compound: CC(C)(C)n1nc(-c2ccc(Cl)cc2)c2c(N)ncnc21 [PP2]
- increased phosphorylation of Tyr 705 in STAT3 (STAT3): no effect
- increased phosphorylation of Tyr 1022 and Tyr 1023 in JAK1 (JAK1): no effect
- increased phosphorylation of Tyr 1007 and Tyr 1008 in JAK2 (JAK2; IL-3 stimulated cd45+/+ or cd45-/- BMMCs): no effect
- JAK2 activation (JAK2; cd45+/+ and cd45-/- BMMCs, addition of the inhibitor): unaffected

Compound: [Na+].[Na+].[Na+].[O]=[V]([O-])([O-])[O-] [vanadate, Na3 VO4]
- effect on rCD45-mediated JAK2 dephosphorylation (rCD45): inhibits
- effect on rCD45-mediated JAK2 dephosphorylation (rCD45; listed as mandate): blocked JAK2 dephosphorylation

Compound: IFN-α
- suppression of CVB3 viral amplification (Coxsackievirus B3 (CVB3)): suppressed viral amplification more efficiently in cd45-deficient cells than in parental Jurkat cells
